Assay results: patent EP2698385A1, “Detection of synthetic cannabinoids” (priority 2012, dated 2014)

Assays:
Assay type in all cases: binding, sheep
Antibody to Immunogen II = experiment: Competitive ELISA (Example 36), antibody RS1833B12, tracer ESC4555/LK959, standard JWH-018; details: Cross-reactants at 100 ng/ml; Antibody to Immunogen II
Experimental: (§1) An aqueous solution of each immunogen was formulated with Freund's Complete Adjuvant (FCA) to form an emulsion consisting of 2mg/ml* immunogen in 50% (v/v) FCA. Three sheep were immunised with this emulsion (1° immunisation), 0.25ml being intramuscularly injected at each of four sites in the flank of each animal. Subsequent immunizations (boosts) contained 1mg/ml* immunogen. All boosts were emulsified in 50% (v/v) Freund's Incomplete Adjuvant (FIA) and were administered in the same manner as the 1° immunisation, at monthly intervals. Blood sampling took place 7 to 14 days after each boost. *The general procedure for immunogen administration is outlined above, however, it was necessary to deviate from this protocol in some cases, due to reduced immunogen concentrations (Immunogens II, IV, VII and VIII) and/or amount available (Immunogen VIII). Any deviations from the protocol described are outlined in Table 1A below and highlighted in bold. Table 1A: Amount and volume of immunogens administered for primary and subsequent boosts
The appropriate antibody coating dilution was determined using standard ELISA checkerboard techniques. The plate was incubated overnight at 4°C, washed 4 times over 10 minutes with Tris buffered saline containing Tween 20 (TBST) and tapped dry. […] 75µl of conjugate (appropriate hapten-HRP) diluted in Tris buffer (pH 7.2) containing EDTA, D-mannitol, sucrose, thimerosal and BSA, was added to each of the wells. The appropriate dilution of conjugate was also determined using standard ELISA checkerboard techniques. The plate was incubated at 25°C for 1 hour. Excess unbound conjugate was removed by washing 6 times over a 10 minute period with TBST. 125µl of tetramethylbenzidine (TMB) substrate solution was added to each well of the plate that was then incubated for 20 minutes in the dark at room temperature. The reaction was terminated by addition of 125µl 0.2M H2SO4 to each well. The absorbance was then measured at 450nm using a microtiter plate reader. The data are inputted to a computer program called 'KC Junior'. It is a 4 parameter fit curve and allow the calculatation of concentrations between the standard runs.
In a similar manner to that described above, the wells of a 96-well microtiter plate were coated with the IgG fraction of the antiserum raised to Immunogens I or II.
(§2) The data set our in Tables 3 and 4 are generated using antibodies raised against the indicated Immunogens in a competitive binding assay with the indicated tracers, using the indicated standards: Table 2
Using the calibration curves generated and employing a single level of cross reactants, these were used to determine the cross-reactivity of each immunoassay with these substances. These are the standards used for the IC50 and cross-reactivity data generation • Immunogen I - JWH-018 • Immunogen II - JWH-018 • Immunogen IV - JWH-018 • Immunogen VII - JWH-015 • Immunogen VIII - JWH-018 Table 4: Cross reactivity of the competitive ELISAs for synthetic cannabinoids and their metabolites

Antibody to Immunogen I = details: Cross-reactants at 100 ng/ml; Antibody to Immunogen I
Experimental: as §1
(§3) The wells of an enhanced binding 96 well polystyrene microtiter plate were coated with IgG fraction of antiserum raised to Immunogen I or II, diluted in 10mM Tris, pH8.5 (125µl/well). The appropriate antibody coating dilution was determined using standard ELISA checkerboard techniques. The plate was incubated overnight at 4°C, washed 4 times over 10 minutes with Tris buffered saline containing Tween 20 (TBST) and tapped dry. Standard solutions (JWH-018 for Immunogens I and II) were applied at 0, 0.625, 1.25, 2.5, 5, 10, 20 and 40ng/ml and 50µl of each was added to the appropriate wells. 75µl of conjugate (appropriate hapten-HRP) diluted in Tris buffer (pH 7.2) containing EDTA, D-mannitol, sucrose, thimerosal and BSA, was added to each of the wells. The appropriate dilution of conjugate was also determined using standard ELISA checkerboard techniques. The plate was incubated at 25°C for 1 hour. Excess unbound conjugate was removed by washing 6 times over a 10 minute period with TBST. 125µl of tetramethylbenzidine (TMB) substrate solution was added to each well of the plate that was then incubated for 20 minutes in the dark at room temperature. The reaction was terminated by addition of 125µl 0.2M H2SO4 to each well. The absorbance was then measured at 450nm using a microtiter plate reader. The data are inputted to a computer program called 'KC Junior'. It is a 4 parameter fit curve and allow the calculatation of concentrations between the standard runs. This program is used to calculate the IC50s by dividing the 0ng/ml OD value by 2 and obtaining the concentration value from the curve for this OD.
In a similar manner to that described above, the wells of a 96-well microtiter plate were coated with the IgG fraction of the antiserum raised to Immunogens I or II. Standard solutions (JWH-018 for Immunogen I and II) were applied at 0, 0.625, 1.25, 2.5, 5, 10, 20 and 40ng/ml and conjugate was employed as detection reagent.
as §2
(§4) A450 = absorbance at 450nm B = absorbance at 450nm at xng/ml standard concentration B0 = absorbance at 450nm at 0ng/ml standard concentration IC50 = standard concentration which produces 50% B/B0
(§5) In order to determine the specificity of the competitive ELISAs, standard solutions of a range of structurally similar synthetic cannabinoids and their metabolites were prepared in TBST. Using the calibration curves generated and employing a single level of cross reactants, these were used to determine the cross-reactivity of each immunoassay with these substances. […]

[1] = test system: Antibody to Immunogen VIII; details: Cross-reactants at 100 ng/ml; Antibody to Immunogen VIII
Experimental: as §1, §3
(§6) In a similar manner to that described above, the wells of a 96-well microtiter plate were coated with the IgG fraction of the antiserum raised to Immunogens IV, VII or VIII. Standard solutions (JWH-018 for Immunogens IV and VIII, JWH-015 for Immunogen VII) were prepared in TBST at 0, 1.25, 2.5, 5, 10, 20, 40 and 80ng/ml and conjugate was employed as detection reagent.
as §2, §4, §5

Antibody to Immunogen IV = details: Cross-reactants at 100 ng/ml; Antibody to Immunogen IV
Experimental: as §1, §3, §6, §2, §4, §5

[2] = test system: Antibody to Immunogen VII; details: Cross-reactants at 100 ng/ml; Antibody to Immunogen VII
Experimental: as §1, §3, §6, §2, §4, §5

## CS(=O)(=O)O.Cc1c(C(=O)c2cccc3ccccc23)c2cccc3c2n1[C@H](CN1CCOCC1)CO3 [(+)WIN 55212-2 (mesylate), (+)WIN 55212-2]
Antibody to Immunogen II
  %B/B0: 83.87%
Antibody to Immunogen I
  %B/B0: 17.00%
[1]
  %B/B0: 107.12%
Antibody to Immunogen IV
  %B/B0: 92.76%
[2]
  %B/B0: 24.08%

## CCCCn1cc(C(=O)c2cccc3ccccc23)c2c(O)cccc21 [JWH-073 4-hydroxyindole metabolite]
Antibody to Immunogen II
  %B/B0: 40.14%
Antibody to Immunogen I
  %B/B0: 39.50%
[1]
  %B/B0: 26.23%
Antibody to Immunogen IV
  %B/B0: 28.69%
[2]
  %B/B0: 82.82%

## CC(C)C(C)n1cc(C(=O)c2cccc3ccccc23)c2ccccc21 (single isomer, unassigned) [JWH 018 N-(1,2-dimethylpropyl) isomer]
Antibody to Immunogen II
  %B/B0: 71.33%
Antibody to Immunogen I
  %B/B0: 6.60%
[1]
  %B/B0: 67.71%
Antibody to Immunogen IV
  %B/B0: 87.11%
[2]
  %B/B0: 62.29%

## O=C(c1ccc(Cl)c2ccccc12)c1cn(CCCCCO)c2ccccc12 [JWH-398 N-(5-hydroxypentyl) metabolite]
Antibody to Immunogen II
  %B/B0: 67.49%
Antibody to Immunogen I
  %B/B0: 48.07%
[1]
  %B/B0: 51.33%
Antibody to Immunogen IV
  %B/B0: 22.01%
[2]
  %B/B0: 82.97%

## O=C(O)CCCn1cc(C(=O)c2cccc3ccccc23)c2ccccc21 [JWH-073 N-butanoic acid metabolite]
Antibody to Immunogen II
  %B/B0: 92.20%
Antibody to Immunogen I
  %B/B0: 6.88%
[1]
  %B/B0: 94.98%
Antibody to Immunogen IV
  %B/B0: 98.95%
[2]
  %B/B0: 60.01%

## CC(C)(C)Cn1cc(C(=O)c2cccc3ccccc23)c2ccccc21 [JWH-018 N-(2,2-dimethylpropyl) isomer]
Antibody to Immunogen II
  %B/B0: 60.15%
Antibody to Immunogen I
  %B/B0: 3.89%
[1]
  %B/B0: 95.09%
Antibody to Immunogen IV
  %B/B0: 80.42%
[2]
  %B/B0: 52.46%

## CCCCCCn1cc(C(=O)c2cccc3ccccc23)c2ccccc21 [JWH-019]
Antibody to Immunogen II
  %B/B0: 15.42%
Antibody to Immunogen I
  %B/B0: 7.22%
[1]
  %B/B0: 74.50%
Antibody to Immunogen IV
  %B/B0: 21.96%
[2]
  %B/B0: 70.05%

## CN1CCCCC1Cn1cc(C(=O)c2ccccc2I)c2ccccc21 (centres unmarked) [AM-2233]
Antibody to Immunogen II
  %B/B0: 86.43%
Antibody to Immunogen I
  %B/B0: 16.97%
[1]
  %B/B0: 91.25%
Antibody to Immunogen IV
  %B/B0: 92.10%
[2]
  %B/B0: 72.46%

## O=C(c1cccc2ccccc12)c1cn(CCN2CCOCC2)c2cc(O)ccc12 [JWH-200 6-hydroxyindole metabolite]
Antibody to Immunogen II
  %B/B0: 61.65%
Antibody to Immunogen I
  %B/B0: 7.27%
[1]
  %B/B0: 83.20%
Antibody to Immunogen IV
  %B/B0: 94.41%
[2]
  %B/B0: 65.52%

## CCCCCn1cc(C(=O)c2cccc3cc(C)ccc23)c2ccccc21 [JWH 122 6-methylnaphthyl isomer]
Antibody to Immunogen II
  %B/B0: 39.17%
Antibody to Immunogen I
  %B/B0: 12.55%
[1]
  %B/B0: 20.46%
Antibody to Immunogen IV
  %B/B0: 8.12%
[2]
  %B/B0: 86.66%

## CCCCn1cc(C(=O)c2c(C)ccc3ccccc23)c2ccccc21 [JWH 073 2-methylnaphthyl analog]
Antibody to Immunogen II
  %B/B0: 43.34%
Antibody to Immunogen I
  %B/B0: 21.84%
[1]
  %B/B0: 78.79%
Antibody to Immunogen IV
  %B/B0: 34.47%
[2]
  %B/B0: 76.74%

## CCCCn1cc(C(=O)c2cccc3ccccc23)c2cc(O)ccc21 [JWH-073 5-hydroxyindole metabolite]
Antibody to Immunogen II
  %B/B0: 20.73%
Antibody to Immunogen I
  %B/B0: 7.34%
[1]
  %B/B0: 90.70%
Antibody to Immunogen IV
  %B/B0: 84.06%
[2]
  %B/B0: 75.11%

## C=CCCCn1cc(C(=O)c2cccc3ccccc23)c2ccccc21 [JWH-022]
Antibody to Immunogen II
  %B/B0: 11.72%
Antibody to Immunogen I
  %B/B0: 4.51%
[1]
  %B/B0: 28.94%
Antibody to Immunogen IV
  %B/B0: 10.61%
[2]
  %B/B0: 58.44%

## CCCCCn1cc(C(=O)c2cccc3c(Cl)cccc23)c2ccccc21 [JWH-398 5-chloronaphthyl isomer]
Antibody to Immunogen II
  %B/B0: 23.50%
Antibody to Immunogen I
  %B/B0: 35.53%
[1]
  %B/B0: 19.67%
Antibody to Immunogen IV
  %B/B0: 7.06%
[2]
  %B/B0: 91.33%

## O=C(c1cccc2ccccc12)c1cn(CCN2CCOCC2)c2ccc(O)cc12 [JWH-200 5-hydroxyindole metabolite]
Antibody to Immunogen II
  %B/B0: 64.99%
Antibody to Immunogen I
  %B/B0: 12.61%
[1]
  %B/B0: 90.88%
Antibody to Immunogen IV
  %B/B0: 97.53%
[2]
  %B/B0: 82.42%

## CCCCn1c(C)c(C(=O)c2cccc3ccccc23)c2ccccc21 [JWH-016]
Antibody to Immunogen II
  %B/B0: 68.73%
Antibody to Immunogen I
  %B/B0: 20.71%
[1]
  %B/B0: 75.24%
Antibody to Immunogen IV
  %B/B0: 91.14%
[2]
  %B/B0: 19.31%

## CC(F)CCCn1cc(C(=O)c2cccc3ccccc23)c2ccccc21 (single isomer, unassigned) [AM-2201 N-(4-fluoropentyl) isomer]
Antibody to Immunogen II
  %B/B0: 14.60%
Antibody to Immunogen I
  %B/B0: 3.45%
[1]
  %B/B0: 15.00%
Antibody to Immunogen IV
  %B/B0: 5.72%
[2]
  %B/B0: 52.70%

## CC(C)CCn1cc(C(=O)c2cccc3ccccc23)c2ccccc21 [JWH 018 N-(3-methylbutyl) isomer (JWH-073 3-methylbutyl homologue), JWH 018 N-(3-methylbutyl) isomer]
Antibody to Immunogen II
  %B/B0: 30.38%
Antibody to Immunogen I
  %B/B0: 3.16%
[1]
  %B/B0: 53.29%
Antibody to Immunogen IV
  %B/B0: 12.75%
[2]
  %B/B0: 48.81%

## CCCCCn1cc(C(=O)c2cccc3ccccc23)c2ccc(OC)cc21 [JWH-018 6-methoxyindole analogue]
Antibody to Immunogen II
  %B/B0: 20.44%
Antibody to Immunogen I
  %B/B0: 10.55%
[1]
  %B/B0: 77.22%
Antibody to Immunogen IV
  %B/B0: 90.65%
[2]
  %B/B0: 72.33%

## CCCCCCn1cc(C(=O)c2cccc3ccccc23)c2cc(O)ccc21 [JWH 019 5-hydroxyindole metabolite]
Antibody to Immunogen II
  %B/B0: 17.34%
Antibody to Immunogen I
  %B/B0: 19.81%
[1]
  %B/B0: 101.57%
Antibody to Immunogen IV
  %B/B0: 93.84%
[2]
  %B/B0: 87.58%

## CCCCCn1cc(C(=O)c2cccc3c(OC)cccc23)c2ccccc21 [JWH-081 5-methoxynaphthyl isomer]
Antibody to Immunogen II
  %B/B0: 60.90%
Antibody to Immunogen I
  %B/B0: 18.51%
[1]
  %B/B0: 26.56%
Antibody to Immunogen IV
  %B/B0: 6.24%
[2]
  %B/B0: 94.16%

## O=C(c1cccc(I)c1)c1cn(CCCCCF)c2ccccc12 [AM-694 3-iodo isomer]
Antibody to Immunogen II
  %B/B0: 48.58%
Antibody to Immunogen I
  %B/B0: 31.37%
[1]
  %B/B0: 12.71%
Antibody to Immunogen IV
  %B/B0: 37.20%
[2]
  %B/B0: 89.49%
